In PMC5458547, “Discovery of first-in-class reversible dual small molecule inhibitors against G9a and DNMTs in hematological malignancies” (Nature Communications, 2017):
Values joined by “and” are separate entries in the source; they are usually repeats but may differ in a detail not shown here. Identical values can stand only once.

What was measured:
TRIM24 = molecular target: T1, TRIM24 (Homo sapiens, UniProt O15164); assay: Epigenetics selectivity panel (BPS Bioscience); type: binding
T1 construct: purchased DiscoverX KINOMEscan (kinases); BPS Bioscience (epigenetic targets)

SUV39H1 = molecular target: T2, SUV39H1 (Homo sapiens, UniProt O43463); assay: Epigenetics selectivity panel (BPS Bioscience); type: biochemical
T2 construct: purchased DiscoverX KINOMEscan (kinases); BPS Bioscience (epigenetic targets)
T2 sequence (O43463 whole entry): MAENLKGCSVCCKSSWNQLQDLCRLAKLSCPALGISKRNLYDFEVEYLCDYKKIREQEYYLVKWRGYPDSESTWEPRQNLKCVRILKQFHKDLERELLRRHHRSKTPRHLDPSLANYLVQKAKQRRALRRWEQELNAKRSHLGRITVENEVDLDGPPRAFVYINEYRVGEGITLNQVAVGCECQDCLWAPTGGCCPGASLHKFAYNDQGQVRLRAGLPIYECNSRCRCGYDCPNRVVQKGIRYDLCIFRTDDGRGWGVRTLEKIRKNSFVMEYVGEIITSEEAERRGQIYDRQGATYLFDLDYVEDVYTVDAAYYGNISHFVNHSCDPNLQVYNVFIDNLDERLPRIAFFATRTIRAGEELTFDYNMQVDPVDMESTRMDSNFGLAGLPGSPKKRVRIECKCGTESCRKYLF

PRMT5 = molecular target: T3, PRMT5 (Homo sapiens, UniProt O14744); assay: Epigenetics selectivity panel (BPS Bioscience); type: biochemical
T3 construct: purchased DiscoverX KINOMEscan (kinases); BPS Bioscience (epigenetic targets)
T3 sequence (O14744 whole entry): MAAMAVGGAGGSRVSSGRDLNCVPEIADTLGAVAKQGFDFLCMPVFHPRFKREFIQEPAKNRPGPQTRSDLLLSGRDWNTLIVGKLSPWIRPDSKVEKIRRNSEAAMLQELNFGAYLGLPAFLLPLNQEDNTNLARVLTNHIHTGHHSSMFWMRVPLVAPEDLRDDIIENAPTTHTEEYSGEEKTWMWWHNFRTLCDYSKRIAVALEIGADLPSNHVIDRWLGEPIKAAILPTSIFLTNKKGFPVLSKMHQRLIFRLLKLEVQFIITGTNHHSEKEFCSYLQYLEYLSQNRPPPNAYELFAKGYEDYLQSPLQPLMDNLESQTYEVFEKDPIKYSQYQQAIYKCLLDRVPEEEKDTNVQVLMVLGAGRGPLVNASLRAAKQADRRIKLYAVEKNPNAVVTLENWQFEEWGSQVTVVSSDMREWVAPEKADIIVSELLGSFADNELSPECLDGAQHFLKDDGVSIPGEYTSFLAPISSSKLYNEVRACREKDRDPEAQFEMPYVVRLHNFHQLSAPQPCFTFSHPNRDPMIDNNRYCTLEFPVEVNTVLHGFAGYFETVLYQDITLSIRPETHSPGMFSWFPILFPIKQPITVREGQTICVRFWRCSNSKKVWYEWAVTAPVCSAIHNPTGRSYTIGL
T3 sequence (Q9BQA1 whole entry partner): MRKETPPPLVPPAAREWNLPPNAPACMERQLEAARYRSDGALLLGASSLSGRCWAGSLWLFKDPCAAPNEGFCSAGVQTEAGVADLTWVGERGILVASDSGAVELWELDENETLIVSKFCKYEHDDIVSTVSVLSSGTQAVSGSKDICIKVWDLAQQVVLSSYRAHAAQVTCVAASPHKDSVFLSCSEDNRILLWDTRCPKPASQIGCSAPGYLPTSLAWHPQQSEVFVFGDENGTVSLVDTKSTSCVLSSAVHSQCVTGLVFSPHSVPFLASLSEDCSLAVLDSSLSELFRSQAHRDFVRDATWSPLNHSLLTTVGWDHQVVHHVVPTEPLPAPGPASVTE

JMJD2C = molecular target: T4, JMJD2C (Homo sapiens, UniProt Q9H3R0); assay: Epigenetics selectivity panel (BPS Bioscience); type: biochemical
T4 construct: purchased DiscoverX KINOMEscan (kinases); BPS Bioscience (epigenetic targets)
T4 sequence (Q9H3R0 whole entry): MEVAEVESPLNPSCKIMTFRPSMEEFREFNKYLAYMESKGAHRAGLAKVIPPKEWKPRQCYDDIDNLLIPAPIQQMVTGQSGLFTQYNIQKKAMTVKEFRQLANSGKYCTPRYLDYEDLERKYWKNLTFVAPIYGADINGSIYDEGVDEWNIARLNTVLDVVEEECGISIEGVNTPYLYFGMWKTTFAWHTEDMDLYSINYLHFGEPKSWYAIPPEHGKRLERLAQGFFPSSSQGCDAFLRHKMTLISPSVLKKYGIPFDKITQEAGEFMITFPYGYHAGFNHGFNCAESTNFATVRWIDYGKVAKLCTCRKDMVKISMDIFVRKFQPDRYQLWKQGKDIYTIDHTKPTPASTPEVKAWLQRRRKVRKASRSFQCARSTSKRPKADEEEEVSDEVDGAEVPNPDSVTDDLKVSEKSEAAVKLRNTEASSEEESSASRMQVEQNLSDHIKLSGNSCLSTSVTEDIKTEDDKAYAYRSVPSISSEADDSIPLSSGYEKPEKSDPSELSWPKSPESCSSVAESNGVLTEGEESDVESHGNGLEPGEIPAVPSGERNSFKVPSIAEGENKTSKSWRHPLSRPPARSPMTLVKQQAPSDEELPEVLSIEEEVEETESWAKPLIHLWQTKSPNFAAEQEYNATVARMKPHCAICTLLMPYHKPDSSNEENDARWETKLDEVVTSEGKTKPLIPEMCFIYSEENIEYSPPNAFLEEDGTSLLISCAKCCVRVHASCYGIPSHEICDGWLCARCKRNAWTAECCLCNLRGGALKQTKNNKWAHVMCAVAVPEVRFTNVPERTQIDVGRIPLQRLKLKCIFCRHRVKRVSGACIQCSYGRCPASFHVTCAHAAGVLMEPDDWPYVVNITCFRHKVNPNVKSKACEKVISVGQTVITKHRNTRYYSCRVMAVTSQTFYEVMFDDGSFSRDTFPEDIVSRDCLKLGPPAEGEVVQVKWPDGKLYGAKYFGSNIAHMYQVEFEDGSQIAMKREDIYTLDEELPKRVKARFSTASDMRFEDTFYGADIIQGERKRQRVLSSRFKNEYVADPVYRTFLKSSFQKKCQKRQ

GLP = molecular target: T5, GLP (Homo sapiens, UniProt Q9H9B1); assay: Epigenetics selectivity panel (BPS Bioscience); type: biochemical; conditions: for IC50: chemiluminescence assay carried out at BPS
T5 construct: purchased BPS Bioscience (contract panel)
T5 sequence (Q9H9B1 1-1298): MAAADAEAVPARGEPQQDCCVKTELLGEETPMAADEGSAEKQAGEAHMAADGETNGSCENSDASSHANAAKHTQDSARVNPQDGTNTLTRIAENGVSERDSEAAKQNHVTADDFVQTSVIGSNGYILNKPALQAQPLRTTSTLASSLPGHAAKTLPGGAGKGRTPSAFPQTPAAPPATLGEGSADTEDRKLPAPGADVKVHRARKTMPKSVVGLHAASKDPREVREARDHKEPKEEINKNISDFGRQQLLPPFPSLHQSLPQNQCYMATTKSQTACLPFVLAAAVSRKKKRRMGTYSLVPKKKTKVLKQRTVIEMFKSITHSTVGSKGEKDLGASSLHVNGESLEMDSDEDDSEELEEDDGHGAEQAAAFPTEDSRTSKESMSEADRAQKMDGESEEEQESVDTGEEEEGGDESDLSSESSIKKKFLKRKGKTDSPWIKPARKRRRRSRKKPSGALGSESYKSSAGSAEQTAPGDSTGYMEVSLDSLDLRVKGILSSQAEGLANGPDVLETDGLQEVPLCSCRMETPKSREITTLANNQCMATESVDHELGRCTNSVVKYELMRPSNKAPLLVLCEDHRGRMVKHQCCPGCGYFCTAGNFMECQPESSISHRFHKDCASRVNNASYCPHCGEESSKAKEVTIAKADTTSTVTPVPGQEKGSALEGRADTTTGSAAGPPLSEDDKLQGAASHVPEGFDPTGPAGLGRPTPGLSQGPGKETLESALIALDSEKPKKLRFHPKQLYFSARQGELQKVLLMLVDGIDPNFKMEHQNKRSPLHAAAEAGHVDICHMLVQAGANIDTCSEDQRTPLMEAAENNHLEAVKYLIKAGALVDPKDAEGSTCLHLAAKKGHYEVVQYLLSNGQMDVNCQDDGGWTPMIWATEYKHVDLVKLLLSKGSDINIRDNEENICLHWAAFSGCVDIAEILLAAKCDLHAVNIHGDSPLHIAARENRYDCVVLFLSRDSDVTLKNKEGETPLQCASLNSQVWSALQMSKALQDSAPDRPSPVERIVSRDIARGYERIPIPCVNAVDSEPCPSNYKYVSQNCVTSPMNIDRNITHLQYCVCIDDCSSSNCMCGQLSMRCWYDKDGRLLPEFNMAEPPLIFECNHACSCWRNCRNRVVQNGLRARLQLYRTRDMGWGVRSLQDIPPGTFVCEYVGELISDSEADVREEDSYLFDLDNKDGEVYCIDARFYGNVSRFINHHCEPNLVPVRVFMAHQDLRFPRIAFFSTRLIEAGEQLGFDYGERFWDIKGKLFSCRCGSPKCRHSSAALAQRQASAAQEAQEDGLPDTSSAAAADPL

MY = assay: Cell proliferation assay (MTS); type: cell-based; conditions: Homo sapiens; ALL, 48 h
MM1.R = assay: Cell proliferation assay (MTS); type: cell-based; conditions: Homo sapiens, MM.1R
KMS28BM = assay: Cell proliferation assay (MTS); type: cell-based; conditions: Homo sapiens, KMS-28BM; MM
cytochrome P450 2D6 = molecular target: T6, cytochrome P450 2D6 (Homo sapiens, UniProt P10635); type: in vitro ADME; conditions: microsomes, 10 min, 10 µM
T6 construct: tissue BD Gentest; host or cells: human liver microsomes
T6 sequence (P10635 whole entry): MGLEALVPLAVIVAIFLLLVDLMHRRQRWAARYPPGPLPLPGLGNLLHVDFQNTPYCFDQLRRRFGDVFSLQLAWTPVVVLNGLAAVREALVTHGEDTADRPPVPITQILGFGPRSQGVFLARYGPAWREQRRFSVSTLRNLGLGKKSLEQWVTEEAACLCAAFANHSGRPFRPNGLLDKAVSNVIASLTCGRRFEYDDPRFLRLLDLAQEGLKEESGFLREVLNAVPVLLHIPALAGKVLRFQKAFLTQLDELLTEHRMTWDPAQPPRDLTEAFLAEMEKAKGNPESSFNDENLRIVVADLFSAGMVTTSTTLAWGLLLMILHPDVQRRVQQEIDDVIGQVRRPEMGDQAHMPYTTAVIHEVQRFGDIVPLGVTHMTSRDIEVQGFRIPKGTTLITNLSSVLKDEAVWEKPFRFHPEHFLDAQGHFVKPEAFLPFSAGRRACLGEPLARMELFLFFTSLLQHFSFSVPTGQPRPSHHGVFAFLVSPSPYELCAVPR
Description: (§1) Details are provided in Supplementary Information. […]
(§2) 3A4) was evaluated in human liver microsomes at Wuxi (http://www.wuxi.com/). Test compounds (10 µM) and the corresponding substrates for each P450 isoform (20 µL) were incubated with 140 µL liver […]
(§3) reaction was terminated by adding 400 µL cold stop solution (200 ng/mL tolbutamide in ACN) and samples were centrifuged at 4000 rpm for 20 minutes. Supernatants were analyzed by LC-MS/MS (Shimadzu LC 20-AD - API 4000), using peak area ratio of analyte/internal standard. Test compounds and positive controls were tested in duplicates. The percentage of inhibition was calculated as the ratio of substrate metabolite detected in treated and non-treated wells. […]

cytochrome P450 2C9 = molecular target: T7, cytochrome P450 2C9 (Homo sapiens, UniProt P11712); type: in vitro ADME; conditions: microsomes, 10 min, 10 µM
T7 construct: tissue BD Gentest; host or cells: human liver microsomes
T7 sequence (P11712 whole entry): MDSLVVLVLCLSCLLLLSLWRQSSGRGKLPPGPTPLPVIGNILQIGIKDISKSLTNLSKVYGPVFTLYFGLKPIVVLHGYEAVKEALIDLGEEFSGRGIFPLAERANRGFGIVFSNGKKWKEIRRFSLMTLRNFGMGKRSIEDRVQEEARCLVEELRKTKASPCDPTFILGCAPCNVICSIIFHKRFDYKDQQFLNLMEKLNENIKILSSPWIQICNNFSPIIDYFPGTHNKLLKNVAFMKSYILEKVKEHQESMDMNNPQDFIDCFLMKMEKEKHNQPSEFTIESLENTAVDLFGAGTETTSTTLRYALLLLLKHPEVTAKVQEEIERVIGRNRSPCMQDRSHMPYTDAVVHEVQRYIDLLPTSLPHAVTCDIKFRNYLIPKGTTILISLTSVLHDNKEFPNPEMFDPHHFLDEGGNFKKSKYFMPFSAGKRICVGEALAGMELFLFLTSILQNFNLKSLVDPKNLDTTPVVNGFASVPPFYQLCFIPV
Description: as §1, §2, §3

cytochrome P450 3A4 = molecular target: T8, cytochrome P450 3A4 (Homo sapiens, UniProt P08684); type: in vitro ADME; conditions: microsomes, 10 min, 10 µM
T8 construct: tissue BD Gentest; host or cells: human liver microsomes
T8 sequence (P08684 whole entry): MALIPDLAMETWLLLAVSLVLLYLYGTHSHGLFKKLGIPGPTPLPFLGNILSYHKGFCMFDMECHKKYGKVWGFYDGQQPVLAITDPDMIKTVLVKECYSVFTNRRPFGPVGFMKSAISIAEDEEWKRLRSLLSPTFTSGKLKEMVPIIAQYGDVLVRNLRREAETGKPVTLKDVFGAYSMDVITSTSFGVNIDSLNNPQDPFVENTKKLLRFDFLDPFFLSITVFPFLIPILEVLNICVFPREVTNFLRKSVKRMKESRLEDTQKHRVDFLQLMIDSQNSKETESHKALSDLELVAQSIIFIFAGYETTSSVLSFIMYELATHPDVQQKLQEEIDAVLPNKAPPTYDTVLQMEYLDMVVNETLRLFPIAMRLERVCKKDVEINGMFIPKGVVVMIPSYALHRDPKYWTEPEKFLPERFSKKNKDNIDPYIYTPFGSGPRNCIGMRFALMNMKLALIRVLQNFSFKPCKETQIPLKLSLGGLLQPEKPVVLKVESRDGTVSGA
Description: as §1, §2, §3

cytochrome P450 2C19 = molecular target: T9, cytochrome P450 2C19 (Homo sapiens, UniProt P33261); type: in vitro ADME; conditions: microsomes, 10 min, 10 µM
T9 construct: tissue BD Gentest; host or cells: human liver microsomes
T9 sequence (P33261 whole entry): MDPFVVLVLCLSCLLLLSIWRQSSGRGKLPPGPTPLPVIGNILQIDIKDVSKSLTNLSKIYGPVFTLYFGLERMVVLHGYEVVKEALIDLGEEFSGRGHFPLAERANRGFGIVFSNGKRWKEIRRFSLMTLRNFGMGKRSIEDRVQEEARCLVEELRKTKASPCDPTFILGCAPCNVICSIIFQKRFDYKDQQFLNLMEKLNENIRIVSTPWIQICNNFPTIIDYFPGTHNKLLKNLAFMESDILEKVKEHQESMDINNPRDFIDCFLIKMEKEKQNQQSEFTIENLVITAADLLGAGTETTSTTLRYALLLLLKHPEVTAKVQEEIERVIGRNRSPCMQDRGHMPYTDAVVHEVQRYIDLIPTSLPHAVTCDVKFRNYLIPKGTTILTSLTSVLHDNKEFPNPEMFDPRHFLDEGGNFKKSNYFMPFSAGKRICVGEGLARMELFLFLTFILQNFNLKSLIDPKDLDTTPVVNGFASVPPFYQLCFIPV
Description: as §1, §2, §3

DU145 = assay: Cell proliferation assay (MTS); type: cell-based; conditions: Homo sapiens, DU-145; Prostate
1205-LU = assay: Cell proliferation assay (MTS); type: cell-based; conditions: Homo sapiens, Melanoma
SEM cells = assay: Cell proliferation assay (MTS); type: cell-based; conditions: Homo sapiens; ALL, 48 h
SU8686 = assay: Cell proliferation assay (MTS); type: cell-based; conditions: Homo sapiens, SU.86.86; Pancreas

In the case of `COc1cc2c(NC3CCN(C)CC3)cc(-c3ccc(C)o3)nc2cc1OCCCN1CCCC1` [CM-272, 6-methoxy-2-(5-methyl-2-furyl)-N-(1-methyl-4-piperidyl)-7-(3-pyrrolidin-1-ylpropoxy)quinolin-4-amine], the inhibition at 10 µM (TRIM24) is reported as 0%, the inhibition at 10 µM (SUV39H1) is reported as 1% and the inhibition at 10 µM (PRMT5) is reported as 6%. For the same molecule, the inhibition at 10 µM (JMJD2C) was 12%, the “% Inhibition at 10 μM: GLP” value (GLP; 10 µM) was 100% and 75% and the IC50 (GLP) was 0.002 µM. For the same molecule, the GI50 (MY) was 0.816 µM, the GI50 (MM1.R) was 0.98 µM and the GI50 (KMS28BM) was 1.63 µM. For the same molecule, the “P450s Inhibition: 2D6” value (cytochrome P450 2D6) was under 10%, the “P450s Inhibition: 2C9” value (cytochrome P450 2C9) was under 10% and the “P450s Inhibition: 3A4” value (cytochrome P450 3A4) was under 10%. The “P450s Inhibition: 2C19” value (cytochrome P450 2C19) was under 10%, the GI50 (DU145) was 0.762 µM and the GI50 (1205-LU) was 0.121 µM. For the same molecule, the GI50 (SEM cells) was 3.32 µM and the GI50 (SU8686) was 1.4 µM.

`COc1cc2c(NCC3CCN(C)CC3)cc(-c3ccc(C)o3)nc2cc1OCCCN1CCCC1` [CM-579, 6-methoxy-2-(5-methyl-2-furyl)-N-[(1-methyl-4-piperidyl)methyl]-7-(3-pyrrolidin-1-ylpropoxy)quinolin-4-amine] was tested, and the inhibition at 10 µM (TRIM24) was 0%, the inhibition at 10 µM (SUV39H1) was 2% and the inhibition at 10 µM (PRMT5) was 0%. The inhibition at 10 µM (JMJD2C) was 13%, the IC50 (GLP) was over 10 µM and the GI50 (MY) was 3.95 µM. The GI50 (MM1.R) was 2.11 µM, the GI50 (KMS28BM) was 7.82 µM and the “P450s Inhibition: 2D6” value (cytochrome P450 2D6) was under 10%. For the same molecule, the “P450s Inhibition: 2C9” value (cytochrome P450 2C9) was under 10%, the “P450s Inhibition: 3A4” value (cytochrome P450 3A4) was under 10% and the “P450s Inhibition: 2C19” value (cytochrome P450 2C19) was under 10%. It also gave a GI50 (DU145) of 0.223 µM, a GI50 (1205-LU) of 0.02 µM and a GI50 (SEM cells) of over 10 µM. The GI50 (SU8686) was 0.621 µM.
